Measured values as given in US5334595A, “Pyrazoloquinolones as anticancer agents” (priority 1992, dated 1994).

Tests used:
Design in all cases: species or system mice
[1] = In vivo antitumor assay, P388/ADR(iv); settings: mouse, in vivo, iv, drug iv
Text: (§1) Mice: Inbred: C3H/He and NCR-nu; and Hybrids: B6D2F1 (C57BL/6 females×DBA/2 males, CD2F1 (Balb/c females×DBS/2 males) and B6C3fl (C57BL/6×C3H) were bred at Wayne State University from strains obtained from the Frederick Cancer Research Facility, Frederick, Maryland or purchased from commercial suppliers.
(§2) Tumors: Murine Tumor: P388 and an adriamycin-resistant (ADR) subline P388/ADR leukemia and the following transplantable solid tumors of mice were used for in vivo testing: B16 melanoma (B16), pancreatic ductal adenocarcinoma No. 03 (Pane 03), colon adenocarcinoma No. 38 (colo 38), lung carcinoma No. 12 (LC 12), mammary ductal adenocarcinoma No. 16/C (Mam16C) and an adriamycin-resistant subline Mam16C/ADR. Human tumor: A single human tumor, mammary carcinoma MX-1 was used for in vivo testing. All tumors are in the Developmental Therapeutics Program frozen tumor respository, maintained by the Biological Testing Branch, Frederick Maryland. Each has a detailed description, code identification number, and list of references at the National Tumor Repository. Murine tumors were maintained in the mouse strain of origin and were transplanted in the appropriate F1 hydrid (or the strain of origin) for therapy trials. Human mammary carcinoma MX-1 (MX1) was maintained as a subcutaneous implant in either athymic Swiss (Cr: NIH(S)-nu) or athymic random bred (NCR-nu) mice and transplanted in NCR-nu for therapy trials.
For P388 and P388/ADR leukemia studies the tumor cells were implanted either interperitoneally (IP) or intravenously (IV) on day zero and treatment was started on day one. For B16 melanoma (B16) studies, the tumor cells were implanted IP on day zero and treatment was started on day one. Titered controls were also included to facilitate the calculation of tumor cell kill. For mammary carcinoma MX-1 studies, tumors were implanted with 1) subcutaneously (sc) (14-mg fragment of sc donor tumor) in the axillary region or 2) under the subrenal capsule (SRC) (10×10×10 ocular micrometer unit fragment of sc donor tumor). Treatment started on the day after subrenal capsule tumor implant or when the subcutaneous tumor implant had reached 100-700 mg.
(§3) Quantitative end points used to assess antitumor activity included % Increased Life Span (% ILS), Tumor Cell Kill (Log10 kill), and Tumor Growth Inhibition (T/C). Long Term Survivors (45 or 60 day) were excluded from calculations of %ILS and Tumor Cell Kill.
Endpoints were calculated as follows: [formula] where Dt is the median day of death for treated and Dc is the median day of death for control groups. A % ILS ≥20 or ≥25 for P388 and B16 intraperitoneal models, respectively, is indicative of a significant degree of antitumor activity. A % ILS ≥75 or ≥50 for P388 and B16 intraperitoneal models, , respectively, is indicative of a high degree of antitumor activity and is the level used by National Cancer Institute to justify further development if other requirements are met (termed DN-2 level activity). Minimum quantitative activity limits for additional P388 models (e.g. P388/ADR and P388, IV) have not been defined. However, the activity limits specified for the intraperitoneal models may be applied as in the majority of instances the intraperitoneal models are found to be signficantly less challenging.
(§4) The log10 cell kill was calculated from the following formula: [formula] where T-C is the tumor difference in the median day of death between the treated (T) and the control (C) groups and Td is the tumor doubling time (in days), the latter estimated from the best fit straight line from a log-linear growth plot of the control-group tumors in exponential growth. The conversion of the T-C values to log10 cell kill is possible because the Td for tumors regrowing post-treatment approximated the Td values of the tumors in untreated control mice.

[2] = In vivo antitumor assay, Mam16C/RP (sc); settings: mouse, in vivo, drug iv
Text: as §1, §2
(§5) Chemotherapy: For pancreatic ductal adenocarcinoma No. 3, colon adenocarcinoma No. 38 (colo 38), lung carcinoma No. 12 LC 12) and both adriamycin-sensitive (RP) and-resistant (ADR) mammary ductal adenocarcinoma No. 16 (Mam16) tumors, bilateral tumor implants were used to help ensure a more uniform tumor burden per mouse (thus reducing the requirement for greater numbers of mice per group). The animals necessary to begin an experiment were pooled, implanted bilaterally s.c. on day zero with 30-60 mg tumor fragments using a 12-gauge trocar, and again pooled before randomization to the various treatment and control groups. Chemotherapy was started within three days after tumor implantation while the number of cells per mouse was relatively small (1×10^7 -1×10^8 cells).
as §3
(§6) Tumors were measured with a caliper once or twice weekly (as needed) until either tumors exceeded 1600 mg or cure was assured. Tumor weights were estimated from two-dimensional measurements: Tumor Weight (mg)=(a×b^2) / 2, where a and b are the tumor length and width (ram) respectively. Measurements were carried out simultaneously in both treatment and control groups. When the control group tumors reached approximately 750-1500 mg in size (median of group), the median tumor weight of each group was determined (including zeros). The T/C value in percent is an indication of antitumor effectiveness. The % T/C was calculated from the following formula for solid murine tumor models: [formula] where T and C are median tumor weights of the treatment and control groups, respectively. […] A T/C value <10% is indicative of a high degree of antitumor activity and is the level used by National Cancer Institute to justify further development if other requirements are met (termed DN-2 level activity). By convention the T/C value for the mammary carcinoma MX-1 models is calculated by the parameter of change in tumor weight .

[3] = system: adriamycin-sensitive (RP) mammary ductal adenocarcinoma No. 16; assay: In vivo antitumor assay, Mam16C/RP (sc); settings: drug iv
Text: as §1, §2, §5, §3, §6

[4] = system: pancreatic ductal adenocarcinoma No. 03; assay: In vivo antitumor assay, Panc03(sc); settings: for Log Kill: Panc03(sc), drug iv
Text: as §1, §2, §5, §3, §4
Tumors were measured with a caliper once or twice weekly (as needed) until either tumors exceeded 1600 mg or cure was assured. Tumor weights were estimated from two-dimensional measurements: Tumor Weight (mg)=(a×b^2) / 2, where a and b are the tumor length and width (ram) respectively. Measurements were carried out simultaneously in both treatment and control groups. When the control group tumors reached approximately 750-1500 mg in size (median of group), the median tumor weight of each group was determined (including zeros). The T/C value in percent is an indication of antitumor effectiveness. The % T/C was calculated from the following formula for solid murine tumor models: [formula] where T and C are median tumor weights of the treatment and control groups, respectively. A T/C equal to or less than 42% is considered significant antitumor activity. […]

[5] = In vivo antitumor assay, Mam16C(sc); settings: mouse, in vivo, drug iv, qd 1-4, exp 1132
Text: as §1, §2, §5, §3, §4
(§7) Tumors were measured with a caliper once or twice weekly (as needed) until either tumors exceeded 1600 mg or cure was assured. […] When the control group tumors reached approximately 750-1500 mg in size (median of group), the median tumor weight of each group was determined (including zeros). […] The % T/C was calculated from the following formula for solid murine tumor models: [formula] where T and C are median tumor weights of the treatment and control groups, respectively. […]

[6] = system: mammary ductal adenocarcinoma No. 16/C (Mam16C); assay: In vivo antitumor assay, Mam16C(sc); settings: drug iv
Text: as §1, §2, §5, §3, §4, §7

[7] = Mam16C/RP (sc), bid 1-5, exp 924

| Structure (SMILES) | MTD ([1]; qd 1-3, exp 1149B) [mg/kg] | MTD ([1]; qd 1-5, exp 1073B) [mg/kg] | MTD [2, 7] [mg/kg] | Log Kill [3, 7] | T/C % [3, 7] [%] | Log Kill ([4]; qd 3,6,9, exp 1146) | Log Kill ([4]; qd 3, exp 895A) | MTD [5] [mg/kg] | Log Kill ([6]; qd 1,3,5, exp 1142A) | T/C % ([6]; qd 1,3,5, exp 1142A) [%] | Log Kill ([6]; qd 1-4, exp 1132) | T/C % ([6]; qd 1-4, exp 1132) [%] | MTD ([2]; Mam16C/RP, bid 1-8, exp 924) [mg/kg] | Log Kill ([3]; Mam16C/RP, bid 1-8, exp 924) | T/C % ([3]; Mam16C/RP, bid 1-8, exp 924) [%] | Log Kill ([4]; qd 3-5, exp 895A) | MTD ([4]; mouse, in vivo, iv) [Mg/Kg] |
| --- | --- | --- | --- | --- | --- | --- | --- | --- | --- | --- | --- | --- | --- | --- | --- | --- | --- |
| Cc1cc(-c2c(F)cc3c4nn(CCN(C)C)c(=O)c-4cn(C4CC4)c3c2F)cc(C)n1.O=C(O)/C=C/C(=O)O [Example 1, 5-Cyclopropyl-6,8-difluoro-2,5-dihydro-2-[2-(dimethylamino)-ethyl]-7-(2,6-dimethyl-4-pyridinyl)-3H-pyrazolo[4,3-c]quinolin-3-one (E)-2-butendioate (1:1)] | 52 | 48 | 20 | 1.2 | 13 | 0.66 | 0.66 | 43 | 1.9 | 18 | 1.3 | 7 |  |  |  |  |  |
| Cc1cc(-c2c(F)cc3c4nn(CCCN(C)C)c(=O)c-4cn(C4CC4)c3c2F)cc(C)n1 [Example 14] |  |  |  |  |  |  |  |  |  |  |  |  | 101 | 1.5 | 8 | 0.60 | 64 |
